US20070154393A1, “Bioassay for volatile low molecular weight insecticides and methods of use” (priority 2005, published 2007)
Like-named read-outs stand apart in the source and are kept apart here.

Legend:
Type in all cases: in vivo
[1] = system: insecticide-susceptible Drosophila melanogaster (Canton-S strain); conditions: for Slope ± Std. Error (best-fit probit mortality line): Table 1, 24 hr exposure, probit analysis; for Slope ± Std. Error (best-fit probit mortality line) / Slope ± Std. Error (probit mortality line): Canton-S; for Slope ± Std. Error (probit mortality line): 24 hr
Method: The insecticide-susceptible Canton-S strain of Drosophila was obtained from the Bloomington Drosophila stock center (Indiana University, Bloomington, Ind.), and used exclusively in all studies. Flies were reared in 100-ml vials capped with acetate plugs (Fisher Scientific; Suwannee, Ga.) on a JAZZ-MIX diet (Fisher) prepared with a 2:1 ratio of water to apple juice. Flies were reared on a 12:12 photocycle at 24° C. and ambient relative humidity. Mixed-sex adults, less than 1-wk old, were used in bioassays.
Flies were briefly anesthetized in rearing vials with a pulse of CO2 and transferred to a CO2 flowbed (Genesee Scientific; San Diego, Calif.). Using a camel hair brush and a 5×5 cm sheet of rice paper, ten flies were placed into 7.0 ml dram vials. Prior to adding flies, each vial received a 0.5 cm^3 block of rearing diet that had been sufficiently dried on a paper towel to remove excessive moisture. The vials were then capped with open-top septum caps (Fisher) that were covered with fine mesh. The mesh was applied to the septum caps in advance using hot glue; it prevented fly escape but readily permitted gas exchange. The flies were allowed 1-hr to recover from the CO2 anesthesia. After one hour, single vials with flies were placed into 0.5 L glass jars, along with a filter paper tent (see FIG. 1). In a fume hood, filter paper tents were treated with insecticide dilutions or acetone for controls. The jars were then rapidly closed tightly with a metal lid. After 24 hours of exposure, mortality was scored with the aid of a magnifying glass.
All test compounds and solvents were >99% purity, and were purchased from Sigma-Aldrich Chemical (Milwaukee, Wis.). See Table 1 for a listing of the test compounds and their structures. Insecticide stock solutions were prepared at a standard concentration of 100 μg/μl in analytical grade acetone. For liquid insecticidal compounds, density in mg/μl was used to calculate weight on a per-volume basis. Stock solutions were held at −20° C. in sealed amber vials. In bioassay jars, filter paper tents were treated with stock volumes ranging from 2 to 20 μl, depending on the inherent toxicity of the test compound. These volumes of insecticide stock provided test concentrations of 200 to 2000 μg insecticide per replicate jar. A range of 4-5 concentrations plus a control were tested for each insecticide, and each range was repeated five times over at least three days. Controls received a volume of acetone identical to the highest insecticide volume that was tested (i.e., 10 μl for menthofuran; 20 μl for all other insecticides). Between uses, bioassay jars and lids were washed in a dishwasher, then baked 12-16 hr at 90° C. in a drying oven.
Probit and regression analyses were performed using the PROC PROBIT and PROC REG procedures, respectively. […] If control mortality ever exceeded 10% in a given replicate, that replicate was discarded.
Four Drosophila strains were used, all obtained from the Bloomington Drosophila Stock Center (Indiana University; Bloomington, Ind.). The Canton-S strain was used as the insecticide-susceptible standard. The Hikone-R strain is metabolically-resistant with elevated cytochrome P450 levels (Waters et al., 1984; Sundseth et al., 1989; Le Goff et al., 2003; Festucci-Buselli et al., 2005). Hikone-R is resistant to a number of insecticides, including malathion, DDT and neonicotinoids (Sundseth et al., 1989; Daborn et al., 2001). Two resistant neurological-mutant strains were also tested. […] Flies were reared in 100-ml vials capped with acetate plugs (Fisher Scientific; Suwanee, Ga.) on a commercial diet (JAZZ-MIX; Fisher Scientific). Flies were reared on a 12:12 photocycle at 24° C. and 60% relative humidity. Mixed-sex adults, less than 1-wk old, were used in bioassays.

[2] = system: insecticide-susceptible Canton-S strain of Drosophila; conditions: for Slope ± Std. Error (probit mortality line): Table 3, Canton-S, 24 hr
Method: (§1) All experimental materials were purchased from Sigma-Aldrich-Fluka (Milwaukee, Wis.) and were of 99% purity or greater. […] All volatile insecticide stocks were prepared at 100 μg/μl in analytical grade acetone. Rather than weigh the highly volatile liquid insecticides (i.e., all compounds except benzothiophene), weight was determined based on the density-volume relationship of each compound. Four serial dilutions were prepared and tested for each insecticide as described previously (Scharf et al., 2006). The insecticide synergists PBO (piperonyl butoxide) and DEF (SSS-tributyl-phosphoro-trithioate) were obtained from Fluka Chemical Co. (Basel, Switzerland) and Mobay Chemical Co. (Kansas City, Mo.). Both synergists were >95% purity. Synergist stocks were prepared at 100 μg/ml in analytical grade acetone.
(§2) Volatility bioassays were conducted exactly as described in a previous report (Scharf et al., 2006). Briefly, bioassays took place in 0.5-l glass jars with metal lids. Mixed-sex flies were isolated from lab colonies and placed in 4-ml dram vials in groups of ten, along with a dried piece of laboratory diet. The dram vials were capped with open-top septum caps that were covered with fine mesh (held in place by non-toxic glue). For bioassays, the assembled dram vials were placed into the 0.5-l jars along with a folded filter paper “tent” (Whatman #1; Vineland, N.J.). The filter paper was treated with either an insecticide dilution or acetone, the jar was sealed with the metal lid, and the bioassay proceeded for 24-hr at room temperature. Mortality was scored based on a complete lack of movement by the flies. Four concentrations plus an acetone control were tested for all insecticides. Between five and ten replicates were performed for each concentration range on each strain-insecticide combination. Synergist bioassays were performed with a slight modification. Synergist stocks were applied to dram vials at 100 μl per vial to provide assay concentrations of 10 μg per vial. […] After treatment, vials were held at an angle in a fume hood and rotated ¼-turn each minute until the acetone evaporated. Flies and diet were added as above and held for 1-hr. Assays were initiated, run, and scored as above.
(§3) Probit analysis was performed using PROC PROBIT in the SAS software package (SAS Institute; Cary, N.C.). If control mortality ever exceeded 10% in a given replicate, that replicate was discarded. Toxicity and synergist ratios at LC50 were compared statistically using the calculation described by Robertson and Preisler (1992). Using this procedure, ratios with 95% confidence intervals were calculated using a spreadsheet-based program. With this calculation, if confidence intervals include 1.0 then ratios are considered non-significant (p>0.05; Robertson and Preisler, 1992).

[3] = system: metabolically resistant Hikone-R strain of Drosophila; conditions: Table 3, Hikone-R, 24 hr
Method: as §1, §2, §3

[4] = Table 2, data taken from Scharf et al. (2006)

Substance | Slope ± Std. Error (best-fit probit mortality line) [1] | Slope ± Std. Error (probit mortality line) [1, 4] | Slope ± Std. Error (probit mortality line) ([1]; Table 3, no synergist) | LC50 (95% CL) ([1]; in vivo) | Slope ± Std. Error (probit mortality line) ([2]; +DEF 10 μg per bioassay vial) | Slope ± Std. Error (probit mortality line) ([2]; +PBO 10 μg per bioassay vial) | DEF synergism ratio (LC50 with synergist÷LC50 without) ([2]; esterase inhibitor DEF, reduction in toxicity, strain not given, fits Canton-S of Table 3) | Slope ± Std. Error (probit mortality line) ([3]; +DEF 10 μg per bioassay vial) | Slope ± Std. Error (probit mortality line) ([3]; +PBO 10 μg per bioassay vial)
ethyl formate | 5.18 ± 1.07 | 5.18 ± 1.07 | 5.18 ± 1.07 | 1656.0 (1486.0 − 1917.0) μg/jar | 1.73 ± 1.35 | 4.74 ± 1.44 | > 12 fold | 14.17 ± 1.80 | 5.17 ± 1.28
methyl formate | 3.27 ± 0.95 | 3.27 ± 0.95 | 3.27 ± 0.95 | – | 3.98 ± 1.52 | 49.50 | – | 1.91 ± 0.60 | 51.10
